Assay results published in patent US8957106B2, “Iminosugar treatment of tumors” (The Chancellor, Masters and Scholars of the University of …, priority 2007, dated 2015).
pIC50: −log10 of the molar value. Read-outs that look alike come from different tables or passages of the source.

Legend:
[1] = read-out: IC50 doses reported by other in vitro studies, cited from earlier work
MNT-1 melanoma cells = test: MTS cell viability assay, MNT-1; type: cell-based; conditions: Homo sapiens, MNT-1, 24 h, read-out: IC50
Method: (§1) Cells were cultured at indicated densities for 24 h, medium was removed and the incubation was continued in a fresh culture medium containing various GC2 or DTIC concentrations. In control experiments, cells were grown in a culture medium containing GC2 buffer.
(§2) The standard […] (MTS)-3-(4,5-dimethylthiazol-2-yl)-5-(3-carboxymethoxyphenyl)-2-(4-sulphophenyl)-2H-tetrazolium inner salt solution assay was performed in order to examine the cytotoxic/cytostatic effect of GC2 on melanoma cells. Briefly, 7.5×10^3 cells were seeded in 96-well microtiter plates (Nunc). After an overnight incubation, serial dilutions of GC2 or DTIC were added in triplicate to a final volume of 100 μl. The blank was represented by a culture medium without cells containing the highest GC2 or DTIC concentration. After 24 h of incubation 20 μl MTS was added to each well and all samples were incubated for 3 h at 37° C. An absorbance of each well was read at 450 nm in a microplate reader. A percentage of cell viability was calculated considering that 100% cell viability was represented by an absorbance of untreated samples […]. Alternatively, the number of viable cells was determined by Trypan blue exclusion test. Melanoma cells treated with GC2 were trypsinized and cells negative for blue staining (viable cells) were counted using a hemocytometer. […]

B16D2 melanoma cells = test: MTS cell viability assay, B16D2; type: cell-based; conditions: B16D2, 24 h, read-out: IC50
Method: as §1, §2

B16F10 melanoma cells = test: MTS cell viability assay, B16F10; type: cell-based, murine; conditions: Mus musculus, B16-F10, B16F10, 24 h, read-out: IC50
Method: as §1, §2

SKMel28 melanoma cells = test: MTS cell viability assay, SKMel28; type: cell-based; conditions: Homo sapiens, SK-MEL-28, SKMel28, 24 h, read-out: IC50
Method: as §1, §2

MelJuSo melanoma cells = test: MTS cell viability assay, MelJuSo; type: cell-based; conditions: Homo sapiens, MEL-JUSO, 24 h, read-out: IC50
Method: as §1, §2

| SMILES | pIC50 ([1]; literature data) | pIC50 (MNT-1 melanoma cells) | pIC50 ([1]; literature data (Lev et al. 2004)) | pIC50 (B16D2 melanoma cells) | pIC50 (B16F10 melanoma cells) | pIC50 (SKMel28 melanoma cells) | pIC50 (MelJuSo melanoma cells) |
| --- | --- | --- | --- | --- | --- | --- | --- |
| CCCCCCCCCCCCC/C=C/[C@@H](O)[C@H](CO)NC(C)=O [C2-ceramide] | 4.00 |  |  |  |  |  |  |
| CN(C)N=Nc1[nH]cnc1C(N)=O [DTIC, 5-(3,3-dimethyl-1-triazeno)-imidazole-4-carboxamide, reference compound] |  | 2.40 to 2.52 | 3.00 | 2.40 to 2.52 | 2.40 to 2.52 | 2.40 to 2.52 | 2.40 to 2.52 |
